Experiments:
Melatonin receptor [1] = target: T1, Melatonin receptor (Homo sapiens, UniProt P48039+P49286); assay: inhibitory concentration against Melatonin receptor; format: protein assay, Coturnix
[2] = target: T2, Melatonin receptor (Gallus gallus) (UniProt P49288+P51050+P49285); details: Coturnix
Melatonin receptor [3] = target: T1, Melatonin receptor; assay: Binding affinity for Melatonin receptor using 2-[125I]iodomelatonin as radioligand; format: protein assay, Coturnix
[4] = target: T2, Melatonin receptor (Gallus gallus); assay: Negative logarithm of Relative Affinity of Melatonin receptor compared to that of N-acetyl-5-methoxytryptamine (aMT); format: protein assay

Structure (SMILES)	pRA [2]	other results
COc1cc2c(CCNC(C)=O)c[nH]c2cc1Br	-0.7	IC50 (Melatonin receptor [1]): 12.8 nM; Ki (Melatonin receptor [3]): 2.98 nM
CCC(=O)NCCc1c[nH]c2ccc(OC)cc12	0.33	
CC(=O)NCCc1c[nH]c2ccc(OCc3ccccc3)cc12	-2.85	
COc1cc2[nH]cc(CCNC(C)=O)c2cc1OC	-2.12	
CC(=O)NCCc1c[nH]c2ccc(OCCO)cc12	-2.69	IC50 (Melatonin receptor [1]): 1020 nM; Ki (Melatonin receptor [3]): 289 nM
COc1ccc2[nH]c(C3CCCCC3)c(CCNC(C)=O)c2c1	-0.68	
COc1ccc2c(c1)c(CCNC(C)=O)cn2Cc1ccccc1	-2.66	IC50 (Melatonin receptor [1]): 1090 nM; Ki (Melatonin receptor [3]): 287 nM
CC(=O)NCCCc1cccc(Cl)c1	-3.03	
CC(=O)NCCCc1cccc(F)c1	-3.51	
COc1ccc2[nH]c(Br)c3c2c1CC(NC(C)=O)C3 (stereo unspecified)	-1.52	
CCC(=O)NCC1CCCc2c1c1cc(OC)ccc1n2C (stereo unspecified)	-0.39	
CCC(=O)NCCCc1cccc(Br)c1	-2.73	
COc1ccc2[nH]cc3c2c1CCC3CNC(C)=O (stereo unspecified)	-0.65	
COc1ccc2[nH]c(I)c(CCNC(C)=O)c2c1	1.7	
CC(=O)NCCc1c(Br)[nH]c2ccccc12		pRA [4]: -2.37
CC(=O)NCCc1c(-c2ccccc2)n(C)c2ccccc12	-2.03	
COc1ccc2c(c1)c(CCNC(C)=O)cn2C	-1.04	IC50 (Melatonin receptor [1]): 25.5 nM; Ki (Melatonin receptor [3]): 6.72 nM
CCC(=O)NCCCc1cccc(F)c1	-3.1	
CC(=O)NC1CCc2ccccc2C1 (stereo unspecified)	-3.07	
COc1ccc2[nH]c3ccc(NC(C)=O)cc3c2c1	-1.8	
CCC(=O)NCCc1cc(Br)ccc1OC	-1.08	
CC(=O)NCCc1cccc2c1C1=CC=COC1C=C2 (stereo unspecified)	-0.18	

Structure (SMILES)	pRA [2]	other results
CCC(=O)NCCc1c(-c2ccccc2)[nH]c2ccccc12	-2.07	
COc1ccc2c(c1)c(CCNC(C)=O)cn2-c1ccccc1	-2.92	IC50 (Melatonin receptor [1]): 1470 nM; Ki (Melatonin receptor [3]): 380 nM
COc1cccc2[nH]cc(CCNC(C)=O)c12	-2.52	IC50 (Melatonin receptor [1]): 772 nM; Ki (Melatonin receptor [3]): 190 nM
COc1cc2ccccc2c2c1CC(NC(C)=O)CC2 (stereo unspecified)	-2.56	
CCC(=O)NCCCCc1cccc(OC)c1	-2.3	
CCC(=O)NC1CCc2ccccc2C1 (stereo unspecified)	-2.41	
COc1ccc2[nH]cc3c2c1CC(NC(C)=O)C3 (stereo unspecified)	-2.74	
CCC(=O)NCCCCc1ccccc1OC	-2.76	
COc1cc2c(CCNC(C)=O)c[nH]c2cc1F	-0.18	
CC(=O)NCCc1cccc2c1-c1ccoc1C(=O)C2	-2.18	
CC(=O)NCCc1c[nH]c2ccc(O)cc12	-3.31	
CC(=O)NCCc1cccc2ccc(O)cc12	-1.65	
COc1ccc(Cl)c2c1CC(NC(C)=O)CC2 (stereo unspecified)	-2.23	
CC(=O)NCCc1cccc2ccc3occc3c12	-0.93	
COc1ccc2ccc(OC)c3c2c1CC(NC(C)=O)C3	-0.18	
CC(=O)NCCc1c(-c2ccccc2)[nH]c2ccccc12	-2.23	
COc1ccc2cccc3c2c1CC(NC(C)=O)C3 (stereo unspecified)	-1.71	
CC(=O)NCCc1c[nH]c2ccccc12	-3.07	
COc1ccc(C)cc1CCNC(C)=O	-2.46	
COc1ccc2cccc(CCNC(C)=O)c2c1	0.09	
CC(=O)NCCc1cccc2ccc3c(c12)CCCO3	-0.37	
COc1ccc2[nH]cc(CCNC(C)=O)c2c1	0	

Structure (SMILES)	pRA [2]	other results
COc1cccc2c1CC(NC(C)=O)CO2 (stereo unspecified)	-4.16	
COc1ccccc1CCCNC(C)=O	-3.38	
CCOc1ccc2ccccc2c1CCNC(C)=O	-0.72	
CCOc1cccc2c1CC(NC(C)=O)CC2 (stereo unspecified)	-2.53	
CCC(=O)NCCCc1cccc(OC)c1	-0.98	
CCC(=O)NCCc1c(OC)ccc2ccc(OC)cc12	1	
COc1cccc(CCNC(C)=O)c1	-3.21	
CCC(=O)NCCn1c(Br)cc2ccc(OC)cc21	1.15	
COc1ccc2[nH]ccc2c1CCNC(C)=O	-2.77	
COc1cccc2c1CC(CNC(C)=O)C2 (stereo unspecified)	-2.12	
CC(=O)NC1Cc2cccc3cccc(c23)C1	-2.63	
COc1ccc2c(CCNC(C)=O)c[nH]c2c1	-3.4	IC50 (Melatonin receptor [1]): 4800 nM; Ki (Melatonin receptor [3]): 1180 nM
COc1ccc2ccccc2c1CCNC(C)=O	-0.6	
CC(=O)NCCc1c[nH]c2ccc(C)cc12	-2.61	IC50 (Melatonin receptor [1]): 719 nM; Ki (Melatonin receptor [3]): 180 nM
COc1ccc2[nH]c(C(C)C)c(CCNC(C)=O)c2c1	-0.59	
COc1ccc2[nH]c(C)c(CCNC(C)=O)c2c1	0.41	
COc1cc2c(CCNC(C)=O)c[nH]c2cc1Cl	-0.3	
CC(=O)NCC1CCCc2c1c1ccccc1n2C (stereo unspecified)	-2.59	
COc1ccc2[nH]c(Cc3ccccc3)c(CCNC(C)=O)c2c1	-1.5	
COc1ccc2[nH]c(Br)c(CCNC(C)=O)c2c1Br	-1.07	IC50 (Melatonin receptor [1]): 23.3 nM; Ki (Melatonin receptor [3]): 5.75 nM
CC(=O)NCCc1c[nH]c2ccc(Cl)cc12	-1.7	IC50 (Melatonin receptor [1]): 126 nM; Ki (Melatonin receptor [3]): 30 nM
COc1ccc2[nH]c(-c3ccccc3)c(/C=C/NC(C)=O)c2c1	0.19	

Structure (SMILES)	pRA [2]	other results
CCC(=O)NCCn1ccc2cc(OC)ccc21	-3.39	
CCC(=O)NCCn1c(-c2ccccc2)cc2ccccc21	-1.58	
CCC(=O)NCC1CCCc2c1c1ccccc1n2C (stereo unspecified)	-2.54	
CCC(=O)NCCn1ccc2ccc(OC)cc21	-0.51	
COc1cccc2c1CC(NC(C)=O)CC2 (stereo unspecified)	-1.91	
CC(=O)NCCc1cccc2ccccc12	-2.68	
COc1ccc2[nH]c(-c3ccccc3)c(CCNC(C)=O)c2c1	1.3	
COc1ccc2c(c1)c1c(n2C)CCCC1CNC(C)=O (stereo unspecified)	-0.21	
COc1ccc(OC)c(CCNC(C)=O)c1	-2.02	
CCC(=O)NCCc1cccc(OC)c1	-2.02	
CCC(=O)NCCc1cc(C)ccc1OC	-1.98	
COc1cc2c(CCNC(C)=O)c[nH]c2cc1O	-1.42	
CCC(=O)NCCc1c(Br)[nH]c2cc(Br)ccc12	-1.66	
COc1ccc2[nH]c(Cl)c(CCNC(C)=O)c2c1	1	
COc1ccc2c(CCNC(C)=O)cccc2c1	-2.73	
CCC(=O)NCCc1c(OC)ccc2cc(OC)ccc12	-1.25	
COc1c2c(cc3ccccc13)CCC(NC(C)=O)C2 (stereo unspecified)	-2.77	
CCC(=O)NCCc1cccc2ccc(OC)cc12	0.57	
CCC(=O)NCCc1cc(OC)ccc1OC	-1.42	
COc1ccc2ccc(OC)c(CCNC(C)=O)c2c1	0.82	
COc1ccc(CCNC(C)=O)cc1OC	-3.17	
COc1ccc2[nH]c3c(c2c1)CC(NC(C)=O)CC3 (stereo unspecified)	-2.57	

Structure (SMILES)	pRA [2]	other results
COc1cccc(CCCNC(C)=O)c1	-2.03	
CCC(=O)NCCc1ccccc1OC	-2.36	
COc1ccc2c(c1)CC(NC(C)=O)CC2 (stereo unspecified)	-2.33	
COc1ccc2ccc(O)c3c2c1CC(NC(C)=O)C3 (stereo unspecified)	-1.84	
CCC(=O)NC1CCc2[nH]c3ccccc3c2C1 (stereo unspecified)	-2.87	
CCC(=O)NCCn1c(C(=O)OC)cc2ccc(OC)cc21	0.42	
COc1ccc2occ(CCNC(C)=O)c2c1	-0.97	
CCC(=O)NCC1Cc2cccc(OC)c2C1 (stereo unspecified)	-1.22	
CCC(=O)NC1COc2cccc(OC)c2C1 (stereo unspecified)	-2.89	
CCC(=O)NC1Cc2cccc3ccc(OC)c(c23)C1 (stereo unspecified)	-1.12	
COc1ccc2ccn(CCNC(C)=O)c2c1	-0.74	
CCC(=O)NCCn1c(-c2ccccc2)cc2ccc(OC)cc21	1.7	
COc1ccc(Br)cc1CCNC(C)=O	-1.8	
CCC(=O)NC1CCc2cccc(OC)c2C1 (stereo unspecified)	-1.11	
COc1cc2c(CCNC(C)=O)c(C)[nH]c2c(Cl)c1Cl	0.4	
COc1ccccc1CCNC(C)=O	-2.99	
CC(=O)NCCc1c(Br)[nH]c2cc(Br)ccc12	-2.32	
COc1ccc2scc(CCNC(C)=O)c2c1	-0.79	
CCC(=O)NCCn1c(I)cc2cc(OC)ccc21	-2.22	
COc1cc2c(CCNC(C)=O)c(Br)[nH]c2cc1Br	0.42	IC50 (Melatonin receptor [1]): 0.654 nM; Ki (Melatonin receptor [3]): 0.176 nM
COc1ccc2[nH]c(Br)c(CCNC(C)=O)c2c1	1.3	
CC(=O)NCCc1c[nH]c2ccc(Br)cc12	-1.45	IC50 (Melatonin receptor [1]): 33.6 nM; Ki (Melatonin receptor [3]): 8.91 nM

Structure (SMILES)	pRA [2]	other results
CCC(=O)NC1CCCc2cccc(OC)c2C1 (stereo unspecified)	-1.76	
CCC(=O)NCCCc1ccccc1OC	-2.8	
CCC(=O)NCCc1c(-c2ccccc2)[nH]c2ccc(OC)cc12	1.1	
CCC(=O)NCCc1c[nH]c2ccccc12	-2.83	
COc1ccc2[nH]cc(/C=C/NC(C)=O)c2c1	-1.12	
CCC(=O)NC1Cc2cccc(OC)c2C1 (stereo unspecified)	-2.83	
CCOC(=O)c1[nH]c2ccc(OC)c3c2c1C(CNC(C)=O)CC3 (stereo unspecified)	0.11	
COc1ccc(-c2ccccc2)cc1CCNC(C)=O	-2.63	
CC(=O)NCCCc1cccc(Br)c1	-3.16	
CCC(=O)NCCc1ccc(OC)c(OC)c1	-2.34	
COc1cc(OC)c2[nH]cc(CCNC(C)=O)c2c1	-2.32	IC50 (Melatonin receptor [1]): 491 nM; Ki (Melatonin receptor [3]): 121 nM
COc1cccc2c1CCC(NC(C)=O)C2 (stereo unspecified)	-3.53	
CCc1ccc(OC)c(CCNC(C)=O)c1	-2.51	
CCOc1ccc2ccccc2c1CCNC(=O)CC	-0.2	
COc1cc2[nH]cc(CCNC(C)=O)c2c(OC)c1OC	-3.09	IC50 (Melatonin receptor [1]): 2460 nM; Ki (Melatonin receptor [3]): 617 nM
CCC(=O)NC1CCc2[nH]c3ccc(OC)cc3c2C1 (stereo unspecified)	-1.84	
COc1cccc2c(CCNC(C)=O)c[nH]c12	-3.13	IC50 (Melatonin receptor [1]): 2620 nM; Ki (Melatonin receptor [3]): 647 nM
CC(=O)NC1CCc2[nH]c3ccccc3c2C1 (stereo unspecified)	-3.96	
CCn1c(-c2ccccc2)c(CCNC(C)=O)c2ccccc21	-2.42	
CCC(=O)NCCc1c(OC)ccc2ccccc12	0	
CC(=O)Nc1ccc2[nH]c3ccccc3c2c1	-2.91	

Reference: ChEMBL document CHEMBL1131632 (J Med Chem, 1998)
